“Also recorded” adds a separate entry of the source.

Here are results for ten molecules from US20020182736A1, “Methods to measure lipid antioxidant activity” (TRUSTEES OF TUFTS COLLEGE, priority 2001, published 2002).

The subject of series [1] is lipid plasma compartment oxidation. The series can be described thus: Lipid plasma compartment oxidation, BODIPY 581/591 green fluorescence. The note with it: 2 mM initiator, 37° C.
Experimental: Plasma oxidation was measured fluorometrically using two different fluorescent probes: DCFH and BODIPY. DCFH-DA and BODIPY stock solutions were prepared in EtOH and dimethylsulfoxide, respectively, stored under nitrogen at −20° C. and used within two months. The final plasma dilution was 1:5 (v/v).
In the experiments using β-carotene, to avoid the filtering effect due to the carotenoid, the oxidation product of BODIPY was also detected at λex=520 and at λem-540 nm. The fluorescence measurements were carried out using a Perkin Elmer spectrofluorometer (model 650-10s) with 1 cm path length fluorescence cuvettes.
Briefly, β-carotene (dissolved in stabilized THF, 10 mg/ml) or α-tocopherol (4.3 mg/ml in EtOH) were added to plasma to reach a final concentration of 50 μM; the samples were then vortexed for 30 sec and incubated at 37±1° C. for 1 to 6 hr under nitrogen. […] Controls were prepared in the same way using solvent only.
The effect of adding the membrane soluble antioxidants, α-tocopherol (in EtOH) and β-carotene (in THF), pre-incubated with plasma, was studied. […] Values are mean±SD of five independent experiments. Statistical analysis: one-way ANOVA with Tukey's post test; *p<0.05, **p<0.01.
To monitor the aqueous phase oxidizability, AAPH was used as a hydrophilic radical generator and coupled to DCFH was used as the indicator.
The subject of series [2] is oxidation of lipid compartment of plasma. Put plainly: Lipid compartment oxidizability of plasma with BHT standard (MeO-AMVN, BODIPY 581/591). To be noted: for Green Fluorescence, 25 μM: equals Plasma minus Plasma + BHT. On the procedure: In order to standardize the method to determine the lipophilic antioxidant capacity, butylated hydroxytoluene (BHT), a phenolic synthetic antioxidant, was chosen as an internal standard. Polyenes and certain foods were packaged with added BHT to protect against oxidation. Plasma was incubated with BODIPY 581/591 in the presence and absence of BHT (25 & 50 µM) at 37° C. for 30 min, and determined for oxidizability in the lipid compartment. There was no significant difference among incubation times of 30 min, 1 hr and 2 hr, on the incorporation of BHT in the lipid compartment of plasma (FIG. 14). […] The concentration of BHT may also be reduced to a level sufficient to produce a detectable signal.

In series [3] the test system is aqueous peroxyl radicals generated by AAPH in human plasma. Put plainly: Consumption of endogenous plasma antioxidants induced by AAPH (HPLC). The note with it: for percentage remaining / Residual Amount (%): AAPH 20 mM for 120 min, no EGCG (control); for time to complete consumption in plasma: 20 mM AAPH, 37° C. On the procedure:
In a second similar experiment, other antioxidants were studied. […] Echinenone in ethanol was added as an internal standard.

A short description of series [4]: ESR quenching of α-tocopheroxyl radical generated from α-tocopherol and DPPH. The class given is biochemical. To be noted: unit inferred; read-out: IC50 quenching of α-TOC-O. ESR signal. On the procedure:
α-TOC+DPPH→α-TOC-O.+DPPHH [1]
For sample preparation, α-tocopherol (900 μM) and DPPH (600 μM) in ethanol solution were mixed for 20 sec and 50 μl of the reaction mixture transferred into a capillary ESR tube. (−)-Epigallocatechin-(3)-gallate (EGCG) was added to the mixture immediately after DPPH decolorization (30 sec after DPPH addition).
A general note: Loss of DPPH colour is used to gauge radical scavenging.

The conditions of series [5]: E(EGCG-O., H+/EGCG-OH); E(A−., H+/AH−); cited from earlier work.
Series [6] deals with lipid peroxyl radicals generated by MeO-AMVN in human plasma. Put plainly: Consumption of endogenous plasma antioxidants induced by MeO-AMVN (HPLC). The note with it: for time to total disappearance in plasma: human plasma 1:5 with PBS, 37° C.
Experimental: After an overnight fast (10-12 h), blood from two healthy donors was collected in ethylenediaminetetraacetic acid (EDTA)-containing tubes. In order to reduce the variability of different donors, blood samples from these two subjects were collected weekly for the duration of the experiment. Immediately after collection, the samples were placed on ice and protected from light. Plasma was obtained by centrifugation at 800 g for 20 min at 4° C. and immediately used for the in vitro studies.
In the presence of 10-20 mM of AAPH, the flux of aqueous radicals calculated on the basis of the known rate of free radical generation from AAPH at 37° C.
In order to obtain homogeneous incorporation, the lipid soluble initiators were added slowly to the samples with a micro-syringe (10 μl) with stirring. The samples were then vortexed for 10 sec and incubated at 37±1° C. under aerobic conditions.
In a second similar experiment, other antioxidants were studied. […] A 100 μl aliquot of the reaction mixture was extracted for β-carotene and α-tocopherol analysis. Echinenone in ethanol was added as an internal standard. The mixture was extracted with CHCl3:CH3OH (2:1 v/v) containing 0.2% BHT and hexane containing 0.1% BHT, dried under nitrogen, redissolved in ethanol, and injected into an HPLC system with a C30 column (3 μm, 150×4.6 mm, YMC, Wilmington, N.C.).
For water-soluble antioxidant measurement, the mixtures were immediately deproteinized with perchloric acid (250 mM).
Results are expressed as percentages with respect to control samples prepared without the azo-compounds.
Where [7] appears, read: Subject 1, 2 hr incubation w/1 mM MeO-AMVN.
The mark [8] stands for this setting: Subject 1, 3 hr incubation w/1 mM MeO-AMVN.
The mark [9] stands for this setting: Subject 2, 2 hr incubation w/1 mM MeO-AMVN.
Where [10] appears, read: Subject 2, 3 hr incubation w/1 mM MeO-AMVN.
Where [11] appears, read: Subject 3, 2 hr incubation w/1 mM MeO-AMVN.
[12] abbreviates: Subject 3, 3 hr incubation w/1 mM MeO-AMVN.

Turning to `CC(C)CC(C)(C#N)N=NC(C)(C#N)CC(C)C` (stereo not shown) [AMVN, 2,2′-azobis(2,4-dimethylvaleronitrile)], the “change in BODIPY fluorescence in plasma” value in series [1] is “no observed changes; also recorded: No change”.

With `Cc1cc(C(C)(C)C)c(O)c(C(C)(C)C)c1` [BHT, butylated hydroxytoluene], the “protection of oxidation of lipid compartment” value in series [2] (BHT added to plasma) is given as 78%. The “Green Fluorescence, Plasma + BHT” value in series [2] (setting [7]) came to 107 ± 1.4; in series [2] (setting [8]) it was 217 ± 4.0; in series [2] (setting [9]), 123 ± 7.3; in series [2] (setting [10]), 223 ± 8.9; in series [2] (setting [11]), 142 ± 8.0; in series [2] (setting [12]), 250 ± 13.3. Also, the “Green Fluorescence, 25 μM” value in series [2] (setting [7]) is reported as 382; in series [2] (setting [8]), 806; in series [2] (setting [9]), 347; in series [2] (setting [10]) it was 650; in series [2] (setting [11]), 245; in series [2] (setting [12]), 551.

For `CC1=C(/C=C/C(C)=C/C=C/C(C)=C/C=C/C=C(C)/C=C/C=C(C)/C=C/C2=C(C)C[C@@H](O)CC2(C)C)C(C)(C)CCC1` [Cryptoxanthin, cryptoxanthin], the “percentage remaining / Residual Amount (%)” value in series [3] is 18.94 ± 3.86%; in series [3] (listed as cryptoxanthin), 18.94±3.86%.

Take `CC1=C[C@H](O)CC(C)(C)[C@H]1/C=C/C(C)=C/C=C/C(C)=C/C=C/C=C(C)/C=C/C=C(C)/C=C/C1=C(C)C[C@@H](O)CC1(C)C` [Lutein, lutein]: the “percentage remaining / Residual Amount (%)” value in series [3] was 12.82 ± 4.85%; in series [3] (listed as lutein), 12.82±4.85%.

In the case of `CC(C)=CCC/C(C)=C/C=C/C(C)=C/C=C/C(C)=C/C=C/C=C(C)/C=C/C=C(C)/C=C/C=C(\C)CCC=C(C)C` [Lycopene, lycopene], the “percentage remaining / Residual Amount (%)” value in series [3] was 8.49 ± 5.20%; in series [3] (listed as lycopene), 8.49±5.20%.

Regarding `CC1=C(/C=C/C(C)=C/C=C/C(C)=C/C=C/C=C(C)/C=C/C=C(C)/C=C/C2=C(C)C[C@@H](O)CC2(C)C)C(C)(C)C[C@H](O)C1` [Zeaxanthin, zeaxanthin], the “percentage remaining / Residual Amount (%)” value is 17.50 ± 5.98% in series [3] and 17.50±5.98% in series [3] (listed as zeaxanthin).

What is called IC50 is the midpoint of a concentration-inhibition curve. Turning to `O=C1O[C@H]([C@@H](O)CO)C(O)=C1O` [ascorbic acid], the “time to complete consumption in plasma” value in series [3] (human plasma 1:5 with PBS) is at most 15 min. Further, in series [4], the IC50 was determined as 14.2 µM. Besides, the “redox potential E” value in series [5] is 0.28 V. For the same molecule, the “time to total disappearance in plasma” value in series [6] (2 mM MeO-AMVN) was found to be 30 min.

For `O=c1[nH]c(=O)c2[nH]c(=O)[nH]c2[nH]1` [uric acid], in series [3] (human plasma 1:5 with PBS), the “time to complete consumption in plasma” value was at most 180 min. Also, in series [6] (2 mM MeO-AMVN), the “time to total disappearance in plasma” value was 300 min.

`Cc1c(C)c2c(c(C)c1O)CC[C@@](C)(CCC[C@H](C)CCC[C@H](C)CCCC(C)C)O2` [α-tocopherol]: the “time to almost complete consumption in plasma” value in series [3] (10-20 mM AAPH, human plasma 1:5 with PBS) is on record as at most 30 min. The “percentage remaining / Residual Amount (%)” value in series [3] stood at 3.86±0.94%. Besides, in series [6] (2 mM MeO-AMVN), the “time to almost total depletion” value is given as 60 min. For the same molecule, the “content reduced by” value in series [6] (2 mM MeO-AMVN, at 30 min) is on record as 42%. Further, the “% α-tocopherol remaining” value in series [6] (control without EGCG, MeO-AMVN) is reported as 16.43±1.72%.

In the case of `CC1=C(/C=C/C(C)=C/C=C/C(C)=C/C=C/C=C(C)/C=C/C=C(C)/C=C/C2=C(C)CCCC2(C)C)C(C)(C)CCC1` [β-Carotene, β-carotene], in series [3], the “percentage remaining / Residual Amount (%)” value was determined as 28.89±6.17%.
